Legend:
Format in all cases: in vivo
wheat = experiment: Evaluation Example 10: tolerance to ultraviolet stress, leaf mortality; settings: for Environmental stress suppressing rate: ultraviolet stress Yes
Procedure: EGT (Examples 12 and 13, Comparative Examples 37 and 38) or GB (Comparative Examples 35, 36, 39, and 40) was prepared so as to have a concentration shown in Table 10 below. EGT and GB were commercially available products, and pure water was used as a solvent.
5 mL of pure water was added to 9-cm petri dishes on which filter paper was placed, and 10 wheat seeds were seeded per petri dish. They were located in a growth chamber set at room temperature of 22° C., and the light period was 16 hours and the dark period was 8 hours. The light conditions were set such that the light intensity was 5000 lx in the central part under irradiation with the fluorescent lamp.
On the 7th day after seeding, pure water in the petri dish was removed, 5 mL of EGT or 5 mL of GB was added to the petri dish, and one day after that, ultraviolet stress was applied by exposure for one hour under irradiation with an ultraviolet lamp (GL-15, manufactured by Toshiba Corporation) with the intensity of ultraviolet radiation of a wavelength of 254 nm set to 550 μW/cm^−2.
The dead leaves were counted 6 days after the ultraviolet stress was applied, and the leaf mortality rate was evaluated as an index of physiological disorder. The leaf mortality rate and the environmental stress suppressing rate were calculated according to the following formulas.

[1] = tested on: Arabidopsis thaliana (Col-0); experiment: Evaluation Example 12: tolerance to intense light stress, leaf whitening; settings: for Leaf whitening rate: test compound 0.1 mM (12.5 mL), intense light stress Yes (LED light, 24 hours); for Environmental stress suppressing rate: test compound 0.1 mM, intense light stress Yes
Procedure: EGT and GB were commercially available products, and pure water was used as a solvent. In a plastic pot having a diameter of 60 mm and a height of 55 mm, 90 mL of culture soil (manufactured by Hanagokoro Co., Ltd.) was placed, and 4 individual Arabidopsis thaliana (Col-0) were seeded per pot. They were located in a growth chamber set at room temperature of 22° C., and the light period was 16 hours and the dark period was 8 hours. The light conditions were set such that the light intensity was 5000 lx in the central part under irradiation with the fluorescent lamp. 12.5 mL of EGT or 12.5 mL of GB was added on the 43rd day after seeding, and one day after that, intense light stress was applied by exposure for 24 hours under irradiation of LED light (manufactured by Esbaybulbs Co., Ltd.) with a light intensity set to 2000 μmol/m 2/sec. Whitened leaves of Arabidopsis thaliana subjected to intense light stress were counted, and the leaf whitening rate was evaluated as an index of physiological disorder. The leaf whitening rate and the environmental stress suppressing rate were calculated according to the following formulas. [formula] [formula]

turf (Manila grass) = experiment: Evaluation Example 11: tolerance to ultraviolet stress, leaf mortality; settings: for Environmental stress suppressing rate: ultraviolet stress Yes
Procedure: EGT (Examples 14 and 15, Comparative Examples 45 and 46) or GB (Comparative Examples 43, 44, 47 and 48) was prepared so as to have a concentration shown in Table 11 below. EGT and GB were commercially available products, and pure water was used as a solvent.
Turf (Manila grass) cut into a 50 mm square was placed on a petri dish and managed in a greenhouse at room temperature of 25° C. The plant height was trimmed to the length of 10 mm. 10 mL of EGT or 10 ml of GB was added per petri dish, and one day after that, ultraviolet stress was applied by exposure for one hour under irradiation with an ultraviolet lamp (GL-15, manufactured by Toshiba Corporation) with the intensity of ultraviolet radiation of a wavelength of 254 nm set to 525 μW/cm^−2.
Dead leaves were counted 7 days after the ultraviolet stress was applied, and the leaf mortality rate was evaluated as an index of physiological disorder. The leaf mortality rate and the environmental stress suppressing rate were calculated according to the following formulas.

soybean plant = experiment: Evaluation Example 6: tolerance to drying stress, leaf mortality; settings: for Leaf mortality rate / Environmental stress suppressing rate: drying stress Yes; for Leaf mortality rate: 7 days after stoppage of water
Procedure: EGT and GB were commercially available products, and pure water was used as a solvent. In a 60 mm square plastic pot having a height of 66 mm, 150 ml of granular soil (Kumiai horticultural soil) was placed, and one individual soybean plant was seeded per pot. They were managed in a greenhouse set at room temperature of 25° C. EGT in an amount of 50 mL or GB in an amount of 50 mL was added on the 23rd day after seeding, and drying stress was applied by stopping water supply for 7 days after the addition of EGT or GB. Dead leaves were counted 7 days after the stoppage of water, and the leaf mortality rate was evaluated as an index of physiological disorder. The leaf mortality rate and the environmental stress suppressing rate were calculated according to the following formulas. [formula] [formula]

cotton = experiment: Evaluation Example 3: tolerance to drying stress, leaf necrotizing; settings: for Leaf necrotizing rate: test compound 0.1 mM (50 mL), 4 days after stoppage of water; for Leaf necrotizing rate / Environmental stress suppressing rate: drying stress Yes; for Environmental stress suppressing rate: test compound 0.1 mM
Procedure: EGT and GB were commercially available products, and pure water was used as a solvent.
In a plastic pot having a diameter of 60 mm and a height of 55 mm, 90 mL of granular soil (Kumiai horticultural soil) was placed, and one individual cotton (manufactured by TOHOKU SEED CO., LTD.) was seeded per pot.
They were managed in a greenhouse set at room temperature of 25° C. EGT in an amount of 50 mL or GB in an amount of 50 mL was added on the 23rd day after seeding, and drying stress was applied by stopping water supply for 4 days after 4 days from the addition of EGT or GB.
The leaves were collected 4 days after the stoppage of water and photographed with a digital camera. The photographed pictures of the leaves were analyzed with image analysis software WinROOF (manufactured by MITANI Corporation) to quantify the total leaf area and the green leaf area.
Using the above-described total leaf area and green leaf area, the leaf necrotizing rate after 4 days from the stoppage of water was evaluated. The leaf necrotizing rate and the environmental stress suppressing rate were calculated according to the following formulas.

[2] = test compound 0.1 mM (5 mL), ultraviolet stress Yes (254 nm, one hour), 6 days after stress
[3] = test compound 0.1 mM, ultraviolet stress No
[4] = test compound 1 mM (5 mL), ultraviolet stress Yes (254 nm, one hour), 6 days after stress
[5] = test compound 1 mM, ultraviolet stress No
[6] = test compound 0.1 mM (10 mL), ultraviolet stress Yes (254 nm, one hour), 7 days after stress
[7] = test compound 1 mM (10 mL), ultraviolet stress Yes (254 nm, one hour), 7 days after stress
[8] = GB 1 mM and 0.1 mM, ultraviolet stress

SMILES | Leaf mortality rate (wheat; [2]) | Leaf mortality rate (wheat; [3]) | Environmental stress suppressing rate (wheat; test compound 0.1 mM) | Leaf mortality rate (wheat; [4]) | Leaf mortality rate (wheat; [5]) | Environmental stress suppressing rate (wheat; test compound 1 mM) | Leaf whitening rate [1] | Environmental stress suppressing rate [1] | Leaf mortality rate (turf (Manila grass); [6]) | Leaf mortality rate (turf (Manila grass); [3]) | Environmental stress suppressing rate (turf (Manila grass); test compound 0.1 mM) | Leaf mortality rate (turf (Manila grass); [7]) | Leaf mortality rate (turf (Manila grass); [5]) | Environmental stress suppressing rate (turf (Manila grass); test compound 1 mM) | Leaf mortality rate (soybean plant; test compound 0.1 mM (50 mL)) | Environmental stress suppressing rate (soybean plant; test compound 0.1 mM) | Leaf mortality rate (soybean plant; test compound 1 mM (50 mL)) | Environmental stress suppressing rate (soybean plant; test compound 1 mM) | Leaf necrotizing rate (cotton) | Environmental stress suppressing rate (cotton) | also measured
C[N+](C)(C)[C@@H](Cc1c[nH]c(=S)[nH]1)C(=O)[O-] [EGT, L-(+)-ergothioneine] | 34% | 1% | 36% | 23% | 0% | 57% | 8% | 78% | 13% | 2% | 79% | 6% | 0% | 90% | 55% | 11% | 38% | 39% | 26% | 50% | 
C[N+](C)(C)CC(=O)[O-] [GB, glycine betaine, reference compound] | 50% | 5% | 6% | 44% | 0% | 17% | 40% | 0% | 54% | 2% | 14% | 59% | 0% | 6% | 71% | 0% | 62% | 0% | 68% | 0% | mortality rate due to ultraviolet stress, result in words (wheat; [8]): hardly suppressed; leaf whitening due to intense light stress, result in words ([1]; 0.1 mM, intense light stress): not suppressed; mortality rate due to ultraviolet stress, result in words (turf (Manila grass); [8]): hardly suppressed; mortality rate due to drying stress, result in words (soybean plant; GB 1 mM and 0.1 mM, drying stress): not suppressed; necrotizing due to drying stress, result in words (cotton; 0.1 mM, drying stress): not suppressed

— patent US20260101897A1, “PLANT ENVIRONMENTAL STRESS TOLERANCE IMPROVEMENT AGENT AND ENVIRONMENTAL STRESS TOLERANCE IMPROVEMENT METHOD” (priority 2022, published 2026)
